Values quoted from earlier work in patent publication US7998959B2, “Modulators of 11-β hydroxyl steroid dehydrogenase type 1, pharmaceutical compositions thereof, and methods of using the same” (Incyte Corporation, priority 2006, dated 2011).

Assays:
[1] = system: pancreatic islet cells of ob/ob mice
[2] = system: primary hippocampal cells
healthy volunteers = conditions: after seven days of treatment

CC1(C)[C@@H](OC(=O)CCC(=O)O)CC[C@]2(C)[C@H]3C(=O)C=C4[C@@H]5C[C@@](C)(C(=O)O)CC[C@]5(C)CC[C@@]4(C)[C@]3(C)CC[C@@H]12 [carbenoxolone]
glucose-stimulated insulin release [1]: improves glucose-stimulated insulin release
protection from glucocorticoid-mediated exacerbation of excitatory amino acid neurotoxicity [2]: protects the cells from glucocorticoid-mediated exacerbation of excitatory amino acid neurotoxicity
negative effects of glucocorticoids on bone nodule formation (bone nodule formation): attenuate the negative effects of glucocorticoids on bone nodule formation
IOP reduced (healthy volunteers): 18%
